Literature values as cited in patent publication US20190316065A1, “NATURALLY-DERIVED ANTIMICROBIAL CLEANING SOLUTIONS” (ProNatural Brands LLC, priority 2018, published 2019).

Conditions: standard pKa

pKa1: 3.1 | pKa2: 4.8 | pKa3: ≈ 6.4
SMILES: O=C(O)CC(O)(CC(=O)O)C(=O)O [citric acid]
